Results on 28 compounds are retold here after patent EP4737442A1, “DIAMINOVINYLIDENE DERIVATIVE OR SALT THEREOF, PEST CONTROL AGENT CONTAINING SAID COMPOUND, AND METHODS FOR USING THESE” (ADEKA CORPORATION, priority 2023, dated 2025).

In general, inhibition refers to the change of the read-out against control, counted positive when it falls.

The test system of this assay is Dirofilaria immitis. Kind of assay: Effect test on Dirofilaria immitis (larval motility inhibition). As to conditions: 168 h, read-out: motility inhibition rate.
As for `O=C1CC(c2ccc(C(F)(F)F)cc2)C(c2ccncc2)C(=O)C1=C(Nc1ccc(F)nc1)Nc1ccc(F)nc1` (stereo not shown) [1-72], the inhibition at 100 µM was no less than 50%.
`O=C1CC(c2ccc(Br)cn2)CC(=O)C1=C(Nc1ccnc(F)c1)Nc1ccnc(F)c1` (stereo not shown) [1-7]: the inhibition at 100 µM was no less than 50%.
Next, `CCC1(c2ccc(C(F)(F)F)cc2)CN(C)C(=O)C(=C(Nc2ccc(F)nc2)Nc2ccc(F)nc2)C1=O` (stereo not shown) [3-10]: no less than 50%; `Cc1cc(NC(Nc2ccc(F)cc2)=C2C(=O)CC(c3ccc(C(F)(F)F)cc3)CC2=O)no1` (stereo not shown) [1-15]: no less than 50%; `CNC(Nc1ccc(F)cc1)=C1C(=O)CN(c2cnc(C#N)c(OC)c2)N(C(=O)OC)C1=O` [6-21]: no less than 50%.
`O=C1CC(c2ccc(C(F)(F)F)cc2)CC(=O)C1=C(NCc1ccccn1)Nc1ccc(F)cc1` (stereo not shown) [1-19]: the inhibition at 100 µM is no less than 50%.
`CSC(Nc1ccc(F)nc1)=C1C(=O)CCN(c2ccc(C(F)(F)F)cc2)C1=O` [9-34]: the inhibition at 100 µM is no less than 50%.
Then `CNC(Nc1ccc(F)cc1)=C1C(=O)CN(c2ccc(C#N)nc2)N(Cc2ccccc2)C1=O` [6-27], with no less than 50%.
For `O=C1CC(c2ccc(Br)cn2)CC(=O)C1=C(Nc1ccc(F)cn1)Nc1ccc(F)cn1` (stereo not shown) [1-5], the inhibition at 100 µM was no less than 50%.
Take `CNC(Nc1ccc(F)cc1)=C1C(=O)CN(c2ccccc2)N(c2ccccc2)C1=O` [6-35]: the inhibition at 100 µM is no less than 50%.
In the case of `CCC1(c2ccc(C(F)(F)F)cc2)CN(C)C(=O)C(=C(NC)Nc2ccc(F)nc2)C1=O` (stereo not shown) [3-8], the inhibition at 100 µM is no less than 50%.
For the compound `CNC(Nc1ccc(F)cc1)=C1C(=O)CC(c2ccc(C(F)(F)F)cc2)CC1=O` (stereo not shown) [1-57], the inhibition at 100 µM is no less than 50%.
Take `O=C1CC(c2ccc(C(F)(F)F)cc2)CC(=O)C1=C(NCc1ccc(OC(F)(F)F)cc1)Nc1ccc(F)cc1` (stereo not shown) [1-14]: the inhibition at 100 µM is no less than 50%.
Next, `O=C1CC(c2ccc(Br)cn2)CC(=O)C1=C(Nc1ccc(F)nc1)Nc1ccc(F)nc1` (stereo not shown) [1-6]: no less than 50%; `O=C1CCC(CC(F)(F)F)C(=O)C1=C(Nc1ccc(F)cc1)Nc1ccc(F)nc1` (stereo not shown) [1-54]: no less than 50%; `O=C1CC(c2ccc(C(F)(F)F)nc2)OC(=O)C1=C(Nc1ccc(F)nc1)Nc1ccc(F)nc1` (stereo not shown) [2-3]: no less than 50%.
On to `COCCNC(Nc1ccc(F)cc1)=C1C(=O)CC(c2ccc(C(F)(F)F)cc2)CC1=O` (stereo not shown) [1-25], for which the inhibition at 100 µM is no less than 50%.
For the compound `COCCNC(NCCOC)=C1C(=O)CC(c2ccc(C(F)(F)F)cc2)CC1=O` (stereo not shown) [1-29], the inhibition at 100 µM was no less than 50%.
In the case of `CCOC(=O)N1C(=O)C(=C(NC)Nc2ccc(F)c(F)c2)C(=O)CN1c1ccc(C#N)c(F)c1` [6-29], the inhibition at 100 µM is no less than 50%.
Turning to `CNC(Nc1ccc(F)nc1)=C1C(=O)CC(c2ccc(C(F)(F)F)cc2)C(c2ccccn2)C1=O` (stereo not shown) [1-70], the inhibition at 100 µM was no less than 50%.
Regarding `O=C1CC(c2ccc(C(F)(F)F)cc2)C(c2ccccn2)C(=O)C1=C(Nc1ccc(F)cc1)Nc1ccc(F)nc1` (stereo not shown) [1-73], the inhibition at 100 µM is no less than 50%.
Then `O=C1CC(c2ccc(Cl)s2)CC(=O)C1=C(Nc1ccc(F)cn1)Nc1ccc(F)cn1` (stereo not shown) [1-2], with no less than 50%.
As for `O=C1CCC(CC(F)(F)F)C(=O)C1=C(Nc1ccc(F)nc1)Nc1ccc(F)nc1` (stereo not shown) [1-52], the inhibition at 100 µM was no less than 50%.
Take `CN(C)CCNC(NCCN(C)C)=C1C(=O)CC(c2ccc(C(F)(F)F)cc2)CC1=O` (stereo not shown) [1-42]: the inhibition at 100 µM is no less than 50%.
For `O=C1CC(c2ccc(C(F)(F)F)cc2)CC(=O)C1=C(Nc1ccc(F)cc1)NC1CC1` (stereo not shown) [1-36], the inhibition at 100 µM was no less than 50%.
Then `CC1(C)C(=O)C(=C(Nc2ccc(F)nc2)Nc2ccc(F)nc2)C(=O)CC1c1ccc(Br)cn1` (stereo not shown) [1-46], with no less than 50%; and `O=C1CC(c2ccc(C(F)(F)F)cc2)CC(=O)C1=C(Nc1ccc(F)cc1)Nc1cnccn1` (stereo not shown) [1-64], with no less than 50%.
For `CNC(Nc1ccc(F)cc1)=C1C(=O)CN(c2cnc(C#N)c(Cl)c2)N(C)C1=O` [6-44], the inhibition at 100 µM is no less than 50%.
